Source: PubChem BioAssay (NCI)
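How tested: cells in 96-well plates exposed to compound for 48 hours at five concentrations. The concentration for 50% growth inhibition is given as GI50. Definition used: TGI = concentration required for complete inhibition of growth.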

Tests used:
Assay in all cases: NCI tumour cell line growth inhibition, 48 h
786-0 renal = test system: 786-0 renal
MDA-MB-435 = test system: MDA-MB-435
TK-10 renal = test system: TK-10 renal
SK-OV-3 ovarian = test system: SK-OV-3 ovarian
SF-295 CNS = test system: SF-295 CNS
MDA-MB-231 breast = test system: MDA-MB-231 breast
ACHN renal = test system: ACHN renal
HCC-2998 colon = test system: HCC-2998 colon
DU-145 prostate = test system: DU-145 prostate
MCF7 breast = test system: MCF7 breast
HOP-62 NSCLC = test system: HOP-62 NSCLC
NCI-H522 lung = test system: NCI-H522 lung
A498 renal = test system: A498 renal
CAKI-1 renal = test system: CAKI-1 renal
HCT-15 colon = test system: HCT-15 colon
PC-3 prostate = test system: PC-3 prostate
OVCAR-3 ovarian = test system: OVCAR-3 ovarian
NCI-H226 lung = test system: NCI-H226 lung
HOP-92 NSCLC = test system: HOP-92 NSCLC
RXF 393 renal = test system: RXF 393 renal
LOX IMVI melanoma = test system: LOX IMVI melanoma
OVCAR-4 ovarian = test system: OVCAR-4 ovarian
HT29 colon = test system: HT29 colon
EKVX NSCLC = test system: EKVX NSCLC
SNB-19 CNS = test system: SNB-19 CNS
NCI-H460 lung = test system: NCI-H460 lung
CCRF-CEM leukemia = test system: CCRF-CEM leukemia

## CCCN1C/C(=C\c2ccc(O)c(OC)c2)C(=O)/C(=C/c2ccc(O)c(OC)c2)C1
786-0 renal
  GI50: > 100 µM
  TGI: > 100 µM
MDA-MB-435
  GI50: > 100 µM
  TGI: > 100 µM
TK-10 renal
  GI50: > 100 µM
  TGI: > 100 µM
SK-OV-3 ovarian
  GI50: > 100 µM
  TGI: > 100 µM
SF-295 CNS
  GI50: > 100 µM
  TGI: > 100 µM
MDA-MB-231 breast
  GI50: > 100 µM
  TGI: > 100 µM
ACHN renal
  GI50: > 100 µM
  TGI: > 100 µM
HCC-2998 colon
  GI50: > 100 µM
  TGI: > 100 µM
DU-145 prostate
  GI50: > 100 µM
  TGI: > 100 µM
MCF7 breast
  GI50: > 100 µM
  TGI: > 100 µM
HOP-62 NSCLC
  GI50: > 100 µM
  TGI: > 100 µM
NCI-H522 lung
  GI50: > 100 µM
  TGI: > 100 µM
A498 renal
  GI50: > 100 µM
  TGI: > 100 µM
CAKI-1 renal
  GI50: > 100 µM
  TGI: > 100 µM
HCT-15 colon
  GI50: > 100 µM
  TGI: > 100 µM
PC-3 prostate
  GI50: > 100 µM
  TGI: > 100 µM
OVCAR-3 ovarian
  GI50: > 100 µM
  TGI: > 100 µM
NCI-H226 lung
  GI50: > 100 µM
  TGI: > 100 µM
HOP-92 NSCLC
  GI50: > 100 µM
  TGI: > 100 µM
RXF 393 renal
  GI50: > 100 µM
  TGI: > 100 µM
LOX IMVI melanoma
  GI50: > 100 µM
  TGI: > 100 µM
OVCAR-4 ovarian
  GI50: > 100 µM
  TGI: > 100 µM
HT29 colon
  GI50: > 100 µM
  TGI: > 100 µM
EKVX NSCLC
  GI50: > 100 µM
  TGI: > 100 µM
SNB-19 CNS
  GI50: > 100 µM
  TGI: > 100 µM
NCI-H460 lung
  GI50: > 100 µM
  TGI: > 100 µM
CCRF-CEM leukemia
  GI50: > 100 µM
  TGI: > 100 µM
